These are literature values, as cited in patent US20100197018A1, “USE OF SUBSTRATES AS PHARMACOLOGICAL CHAPERONES” (AMICUS THERAPEUTICS, INC., priority 2007, published 2010).

Where two headings read alike, the source gives them in different places.

One data set addresses T1, iduronate-2-sulfatase (Homo sapiens, UniProt P22304).
T1 sequence (P22304 34-550): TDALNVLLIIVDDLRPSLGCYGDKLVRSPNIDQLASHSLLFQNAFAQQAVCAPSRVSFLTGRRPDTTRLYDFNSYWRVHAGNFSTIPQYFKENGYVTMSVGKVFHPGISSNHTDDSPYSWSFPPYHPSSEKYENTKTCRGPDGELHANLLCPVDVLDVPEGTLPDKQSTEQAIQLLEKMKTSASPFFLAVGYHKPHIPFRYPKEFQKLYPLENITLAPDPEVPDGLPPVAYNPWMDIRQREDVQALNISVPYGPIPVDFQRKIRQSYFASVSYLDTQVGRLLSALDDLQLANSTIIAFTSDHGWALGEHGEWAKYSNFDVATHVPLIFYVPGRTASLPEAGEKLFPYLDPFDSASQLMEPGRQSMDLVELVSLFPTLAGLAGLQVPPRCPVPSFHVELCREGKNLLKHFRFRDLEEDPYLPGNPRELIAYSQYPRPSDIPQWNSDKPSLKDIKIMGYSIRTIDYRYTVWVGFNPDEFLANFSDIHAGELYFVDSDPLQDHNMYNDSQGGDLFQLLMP
Particulars: for pH optimum: Table 4, cells marked * (not optimum pH) left out; for activity as % of maximal activity: at pH 6.3; for Relative catalytic efficiency: IdoA2S-anM = 1.0; for pH of maximal activity: text b65, highly sulfated tetrasaccharide substrates.

The target in data set [1] is T2, N-acetyl-glucosamine-6-sulfate sulfatase (6S) Form A (Homo sapiens, UniProt P15586).
T2 sequence (P15586 37-552): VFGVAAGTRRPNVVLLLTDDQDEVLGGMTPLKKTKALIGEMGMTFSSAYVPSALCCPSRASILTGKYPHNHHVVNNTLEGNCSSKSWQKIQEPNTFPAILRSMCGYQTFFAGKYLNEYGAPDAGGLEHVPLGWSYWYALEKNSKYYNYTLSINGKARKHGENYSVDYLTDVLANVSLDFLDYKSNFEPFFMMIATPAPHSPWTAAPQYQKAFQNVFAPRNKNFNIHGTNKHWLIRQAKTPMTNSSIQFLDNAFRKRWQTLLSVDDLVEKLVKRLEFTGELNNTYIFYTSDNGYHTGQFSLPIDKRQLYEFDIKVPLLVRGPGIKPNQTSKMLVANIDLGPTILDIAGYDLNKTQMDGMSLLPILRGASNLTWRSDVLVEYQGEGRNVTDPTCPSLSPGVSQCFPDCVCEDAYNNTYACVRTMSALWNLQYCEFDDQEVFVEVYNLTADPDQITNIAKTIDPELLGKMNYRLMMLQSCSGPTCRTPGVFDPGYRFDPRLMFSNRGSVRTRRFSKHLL
Particulars: for kcat. (turnover number) / Relative catalytic efficiency* / Km: Form A; for Relative catalytic efficiency*: kcat./Km calculated relative to a value for GlcNAc6S = 1; for Km: read-out: Km; for pH optimum: Table 6.

Setting [2] is: at the optimum pH of the substrate analog.
[3] abbreviates: not optimum pH (*): IdoA2S-anM6S at pH 5.0, IdoA2S-anT4S at pH 4.0.

Consider `[Cl-].[Cl-].[Mg+2]` [magnesium chloride], for which the “effect of salt on activity of the enzyme against the substrates” value (“effect of salt on activity of the enzyme” below) at iduronate-2-sulfatase is “no effect or increase the activity”.

Regarding `[Cl-].[Na+]` [sodium chloride], on iduronate-2-sulfatase, the “effect of salt on activity of the enzyme” value is “inhibitory”.

Regarding “L-O-(α-iduronic acid 2 sulphate)-D-β-α-glucosamine 6-sulphate)-(1-4)-L-O-(α-iduronic acid 2-sulphate)-(1-4)-D-O-anhydro-mannitol 6-sulphate [IdoA2S-GlcNH6S-IdoA2S-anM6S]”, on iduronate-2-sulfatase, the “pH range of activity” value is listed as 4.2-6.0, the pH optimum is reported as 5.4, the “activity as % of maximal activity” value is approximately 12% and the “pH of maximal activity” value is listed as 5.1. In addition, at iduronate-2-sulfatase (setting [2]), the Km is 2.5 µM, the “kcat. (turnover no.)” value is reported as 1925 mol/min per mol of enzyme and the Relative catalytic efficiency was 91.7.

`O=P(O)(O)O` [sodium phosphate]: the “effect of salt on activity of the enzyme” value on iduronate-2-sulfatase is “inhibitory”.

As for `CC(=O)N[C@H]1[C@@H](O[C@H]2[C@H](O)[C@@H](OS(=O)(=O)O)[C@H](O[C@H]3[C@H](O)[C@@H](CO)O[C@@H]3COS(=O)(=O)O)O[C@H]2C(=O)O)O[C@H](COS(=O)(=O)O)[C@@H](O)[C@@H]1O` [GlcNAc6S-IdoA2S-anM6S, O-(α-N-acetylglucosamine 6-sulphate)-(1-4)-L-O-(α-iduronic acid 2-sulphate)-(1-4)-D-O-2,5-anhydro-mannitol 6 sulphate], in data set [1], the “kcat. (turnover number)” value is listed as 7.08 mol/min per mol of enzyme, the “Relative catalytic efficiency*” value was 402, the Km was 0.76 µM and the pH optimum is given as 4.3.

For the molecule `O=C(O)[C@@H]1O[C@@H](O[C@H]2[C@H](O)[C@@H](CO)O[C@@H]2COS(=O)(=O)O)[C@H](OS(=O)(=O)O)[C@@H](O)[C@@H]1O` [IdoA2S-anM6S, L-O-(α-iduronic acid 2-sulphate)-(1-4)-D-β-2,5-anhydro-mannitol 6-sulphate], the pH optimum at iduronate-2-sulfatase was 4.0. In addition, on iduronate-2-sulfatase (setting [2]), the Km is 4 µM, the “kcat. (turnover no.)” value is reported as 2114 mol/min per mol of enzyme and the Relative catalytic efficiency is on record as 63.0. Further, on iduronate-2-sulfatase (compared with IdoA2S-anM), the “increase in binding affinity (Km)” value was 5 fold and the “increase in turnover (Kcat)” value is 13 fold. On iduronate-2-sulfatase (compared with IdoA2S-anM (addition of a 6-sulfate ester group)), the “increase in catalytic activity” value was 63 fold. At iduronate-2-sulfatase (setting [3]), the Km is 2.5 µM, the “kcat. (turnover no.)” value was 905 mol/min per mol of enzyme and the Relative catalytic efficiency is 43.1.

Turning to `O=S(=O)([O-])[O-].[Na+].[Na+]` [sodium sulfate], the “effect of salt on activity of the enzyme” value at iduronate-2-sulfatase is “inhibitory”.

With manganese chloride, at iduronate-2-sulfatase, the “effect of salt on activity of the enzyme” value is “no effect or increase the activity”.

For the molecule `N[C@H]1[C@@H](O[C@H]2[C@H](O)[C@@H](OS(=O)(=O)O)[C@H](O[C@H]3[C@H](O)[C@@H](CO)O[C@@H]3COS(=O)(=O)O)O[C@H]2C(=O)O)O[C@H](COS(=O)(=O)O)[C@@H](O)[C@@H]1O` [GlcNH6S-IdoA2S-anM6S, O-α-glucosamine 6-sulphate)-(1-4)-L-O-(α-iduronic acid 2-sulphate)-(1-4)-D-β-2,5-anhydro-mannitol 6-sulphate], in data set [1], the “kcat. (turnover number)” value is reported as 0.11 mol/min per mol of enzyme, the “Relative catalytic efficiency*” value is reported as 14, the Km is 0.35 µM and the pH optimum is recorded as 4.3.

As for “O-(α-L-iduronic acid 2-sulphate)-(1-4)-D-β-(α-2-sulphaminoglucosamine 6 sulphate)-(1-4)-L-O-(α-iduronic acid 2-sulphate)-(1-4)-D-O-2,5-anhydro[1-^3H]mannitol 6-sulphate [IdoA2S-GlcNS6S-IdoA2S-anM6S]”, on iduronate-2-sulfatase, the “pH range of activity” value was 5.0-6.5, the pH optimum was 5.7, the “activity as % of maximal activity” value was approximately 90% and the “pH of maximal activity” value is listed as 5.7. For the same molecule, on iduronate-2-sulfatase (setting [2]), the Km was 1.4 µM, the “kcat. (turnover no.)” value was 2177 mol/min per mol of enzyme and the Relative catalytic efficiency is given as 186.7.
